Consider six molecules from ChEMBL document CHEMBL5634199, “Novel Exatecan-Derived Topoisomerase-1 Inhibitors for Treating Cancer” (ACS Med Chem Lett, 2024).

The assay concerns JeKo-1. Kind of assay: Antiproliferative activity against human JeKo-1 cells assessed as reduction in cell viability by Cell-Titer Glo luminescent assay. The format is functional, cell-based.
Consider `CC[C@@]1(O)C(=O)OCc2c1cc1n(c2=O)Cc2c-1nc1cc(F)c(C)c3c1c2[C@@H](NC(=O)C(C)(O)CO)CC3` (stereo partly specified), for which the EC50 (as a rule, the concentration at which the effect is half-maximal) came to 1.2 nM. With `CC[C@@]1(O)C(=O)OCc2c1cc1n(c2=O)Cc2c-1nc1cc(F)c(C)c3c1c2[C@@H](NC(=O)C(F)(F)C(C)O)CC3` (stereo partly specified) the figure was 1.6 nM; with `CC[C@@]1(O)C(=O)OCc2c1cc1n(c2=O)Cc2c-1nc1cc(F)c(C)c3c1c2[C@@H](NC(=O)C(C)(N)C(F)(F)F)CC3` (stereo partly specified), 1.6 nM. With `CC[C@@]1(O)C(=O)OCc2c1cc1n(c2=O)Cc2c-1nc1cc(F)c(C)c3c1c2[C@@H](NC(=O)C(F)CO)CC3` (stereo partly specified) the figure was 1.5 nM; with `CC[C@@]1(O)C(=O)OCc2c1cc1n(c2=O)Cc2c-1nc1cc(F)c(C)c3c1c2[C@@H](NC(=O)[C@@H](O)CO)CC3`, 1.4 nM; with `CC[C@@]1(O)C(=O)OCc2c1cc1n(c2=O)Cc2c-1nc1cc(F)c(C)c3c1c2[C@@H](NC(=O)[C@H](O)CCO)CC3`, 1.4 nM.
